Results on 4 compounds are retold here after ChEMBL document CHEMBL1201862, “PubChem BioAssay data set” (2004).

Assay [1] is described as follows: NIH-3T3 fibroblast cytotoxicity, dose response, cytotoxicity control, cell-based, fluorescence, Alamar Blue, secondary assay (AID 2327).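 Also: NIH-3T3 mouse fibroblasts cultured with fluconazole at 8 µg/mL.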 Type of assay: functional.
Assay [2] deals with BJ. Kind of assay: BJ-TERT fibroblast viability loss – cell-based, RAS-independent, luminescence, dose response (AID 1933). Type of assay: functional. Conditions: Homo sapiens.
For assay [3], the system named is BJ. Kind of assay: cells. The assay is classed as functional, cell-based. Conditions: Homo sapiens.
Assay [4] in a line: fluconazole-exposed Candida albicans growth modulators – fluorescence, retest, confirmation (AID 2467). Type of assay: functional, cell-based.
The nature of assay [5]: viability of PTEN-deleted HCT116 cells – cell-based, HCT116 PTEN knockout, dose response (AID 1047).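 Also: HCT116 colon tumor cells with PTEN knocked out; cells exposed to compound for 60 hours before readout; potency for loss of cell viability measured by luminescence.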 Type of assay: functional.
Assay [6] in a line: viability of HCT116 lacking mutant beta-catenin – cell-based, human colon tumor, dose response (AID 1045).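 Also: HCT116 colon tumor cells with beta catenin knocked out; cells exposed to compound for 60 hours.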 The assay is classed as functional.
Assay [7] relates to BJ. In words: BJ-TERT-LT-ST fibroblast viability loss – cell-based, RAS-independent, luminescence, dose response (AID 1935).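 Also: BJ fibroblasts immortalized with TERT plus LT and ST oncogenes.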 Type of assay: functional. Conditions: Homo sapiens.
Assay [8] can be described thus: DRD fibroblast viability loss – cell-based, non-viral oncogenic, luminescence, dose response (AID 1934). Type of assay: functional. Conditions: Homo sapiens.
For assay [9], the system named is BJ. In words: growth inhibition of engineered Ras-driven BJ cells – cell-based, alamar blue fluorescence, cherrypicked samples, dose response (AID 2631).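 Also: confirmatory dose-response assay in RAS-dependent BJ fibroblasts engineered with TERT, LT and ST, with cytotoxicity read by fluorescence.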 The assay is classed as functional. Conditions: Homo sapiens. (In general: Resazurin is reduced to fluorescent resorufin, in cell work by metabolically active cells.)
A further assay addresses T1, Caspase-3 (Homo sapiens, UniProt P42574).
T1 sequence (P42574 whole entry): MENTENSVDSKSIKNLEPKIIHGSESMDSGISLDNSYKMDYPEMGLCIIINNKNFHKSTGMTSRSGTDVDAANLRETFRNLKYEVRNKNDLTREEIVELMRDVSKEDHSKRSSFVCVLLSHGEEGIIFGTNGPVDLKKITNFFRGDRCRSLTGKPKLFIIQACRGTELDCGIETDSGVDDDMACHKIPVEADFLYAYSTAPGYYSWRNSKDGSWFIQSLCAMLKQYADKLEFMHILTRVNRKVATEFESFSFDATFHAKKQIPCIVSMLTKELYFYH
The assay is classed as functional.

Assay [10] has as its target T2, Sentrin-specific protease 7 (Homo sapiens, UniProt Q9BQF6).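 Also: Luminescence-based dose-response confirmation of ultra-high-throughput screening hits, measuring inhibition of SENP7.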
T2 sequence (Q9BQF6 whole entry): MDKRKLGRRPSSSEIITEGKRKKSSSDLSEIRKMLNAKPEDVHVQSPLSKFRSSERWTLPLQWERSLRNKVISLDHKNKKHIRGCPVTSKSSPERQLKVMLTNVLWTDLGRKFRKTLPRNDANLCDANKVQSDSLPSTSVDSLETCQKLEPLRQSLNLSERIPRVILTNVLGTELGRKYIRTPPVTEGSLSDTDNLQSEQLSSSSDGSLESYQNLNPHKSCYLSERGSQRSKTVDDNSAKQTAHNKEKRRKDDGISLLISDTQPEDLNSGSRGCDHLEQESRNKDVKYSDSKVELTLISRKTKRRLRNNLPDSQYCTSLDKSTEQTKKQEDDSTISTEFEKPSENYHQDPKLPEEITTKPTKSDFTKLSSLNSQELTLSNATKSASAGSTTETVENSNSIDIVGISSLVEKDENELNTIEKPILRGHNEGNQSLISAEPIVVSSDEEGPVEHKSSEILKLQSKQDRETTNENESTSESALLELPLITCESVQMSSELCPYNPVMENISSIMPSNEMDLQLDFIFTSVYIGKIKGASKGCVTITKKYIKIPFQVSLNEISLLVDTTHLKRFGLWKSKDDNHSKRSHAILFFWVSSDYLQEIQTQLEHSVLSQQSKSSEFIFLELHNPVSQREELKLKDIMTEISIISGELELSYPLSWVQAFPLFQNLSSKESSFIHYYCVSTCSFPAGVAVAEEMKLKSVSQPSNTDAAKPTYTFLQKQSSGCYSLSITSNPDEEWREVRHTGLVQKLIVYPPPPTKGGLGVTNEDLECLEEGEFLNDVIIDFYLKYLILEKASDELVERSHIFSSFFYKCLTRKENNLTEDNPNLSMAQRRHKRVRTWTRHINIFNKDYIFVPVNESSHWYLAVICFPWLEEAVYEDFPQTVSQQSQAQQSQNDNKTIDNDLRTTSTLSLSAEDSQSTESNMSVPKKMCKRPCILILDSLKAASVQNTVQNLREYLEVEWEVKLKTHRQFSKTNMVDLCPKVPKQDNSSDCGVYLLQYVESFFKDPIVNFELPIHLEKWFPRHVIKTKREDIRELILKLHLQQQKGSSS
The assay is classed as functional.

For assay [11], the target named is T3, Sentrin-specific protease 6 (Homo sapiens, UniProt Q9GZR1).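 Also: Luminescence-based dose-response confirmatory assay of SENP6 inhibition, following up an ultra-high-throughput screen.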
T3 sequence (Q9GZR1 whole entry): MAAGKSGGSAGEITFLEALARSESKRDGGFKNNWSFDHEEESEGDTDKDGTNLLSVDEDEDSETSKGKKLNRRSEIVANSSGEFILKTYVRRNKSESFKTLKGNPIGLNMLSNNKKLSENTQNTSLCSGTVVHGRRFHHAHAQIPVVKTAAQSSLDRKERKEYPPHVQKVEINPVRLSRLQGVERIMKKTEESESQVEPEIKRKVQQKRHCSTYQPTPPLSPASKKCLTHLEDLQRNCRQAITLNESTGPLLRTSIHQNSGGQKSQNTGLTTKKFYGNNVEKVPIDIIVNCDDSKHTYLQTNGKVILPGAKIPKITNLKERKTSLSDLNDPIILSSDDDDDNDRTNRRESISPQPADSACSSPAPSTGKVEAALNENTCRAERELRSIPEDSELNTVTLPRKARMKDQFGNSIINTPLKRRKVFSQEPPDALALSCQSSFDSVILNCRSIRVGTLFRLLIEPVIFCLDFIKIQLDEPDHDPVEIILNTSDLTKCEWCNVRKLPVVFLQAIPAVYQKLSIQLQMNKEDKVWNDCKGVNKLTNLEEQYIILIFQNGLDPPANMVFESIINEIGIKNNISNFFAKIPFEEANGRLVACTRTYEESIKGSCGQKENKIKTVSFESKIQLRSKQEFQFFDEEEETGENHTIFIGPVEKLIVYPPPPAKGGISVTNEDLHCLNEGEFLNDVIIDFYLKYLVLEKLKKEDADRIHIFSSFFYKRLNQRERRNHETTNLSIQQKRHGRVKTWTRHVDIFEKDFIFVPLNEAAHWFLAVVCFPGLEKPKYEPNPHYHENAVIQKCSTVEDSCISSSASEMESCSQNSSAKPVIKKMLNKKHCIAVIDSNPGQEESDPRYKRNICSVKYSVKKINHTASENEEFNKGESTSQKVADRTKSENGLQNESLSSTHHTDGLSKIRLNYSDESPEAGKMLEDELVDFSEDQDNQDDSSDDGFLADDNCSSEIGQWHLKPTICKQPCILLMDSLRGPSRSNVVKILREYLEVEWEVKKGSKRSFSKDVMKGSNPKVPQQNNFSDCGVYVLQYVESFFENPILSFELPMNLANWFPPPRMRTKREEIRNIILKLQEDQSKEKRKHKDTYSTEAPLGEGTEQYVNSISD
The assay is classed as functional.

For assay [12], the target named is T4, Sentrin-specific protease 8 (Homo sapiens, UniProt Q96LD8).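 Also: luminescence read-out of SENP8 inhibition, dose-response confirmation following an ultra-high-throughput screen.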
T4 sequence (Q96LD8 whole entry): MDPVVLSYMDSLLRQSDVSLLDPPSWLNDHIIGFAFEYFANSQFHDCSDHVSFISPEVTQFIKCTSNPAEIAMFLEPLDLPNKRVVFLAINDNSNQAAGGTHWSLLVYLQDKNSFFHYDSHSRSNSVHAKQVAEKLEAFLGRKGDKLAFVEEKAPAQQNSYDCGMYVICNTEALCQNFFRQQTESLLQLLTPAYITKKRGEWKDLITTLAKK
Type of assay: functional.

Another assay relates to HeLa. In words: ATP-based viability loss in HeLa cells – cell-based, CellTiter-Glo luminescence, cherry-pick samples, cytotoxicity control for MITF activator project, dose response (AID 540259). Type of assay: functional. Conditions: Homo sapiens.
Assay [13] deals with T5, Rac GTPase-activating protein 1 (Homo sapiens, UniProt Q9H0H5).
T5 sequence (Q9H0H5 whole entry): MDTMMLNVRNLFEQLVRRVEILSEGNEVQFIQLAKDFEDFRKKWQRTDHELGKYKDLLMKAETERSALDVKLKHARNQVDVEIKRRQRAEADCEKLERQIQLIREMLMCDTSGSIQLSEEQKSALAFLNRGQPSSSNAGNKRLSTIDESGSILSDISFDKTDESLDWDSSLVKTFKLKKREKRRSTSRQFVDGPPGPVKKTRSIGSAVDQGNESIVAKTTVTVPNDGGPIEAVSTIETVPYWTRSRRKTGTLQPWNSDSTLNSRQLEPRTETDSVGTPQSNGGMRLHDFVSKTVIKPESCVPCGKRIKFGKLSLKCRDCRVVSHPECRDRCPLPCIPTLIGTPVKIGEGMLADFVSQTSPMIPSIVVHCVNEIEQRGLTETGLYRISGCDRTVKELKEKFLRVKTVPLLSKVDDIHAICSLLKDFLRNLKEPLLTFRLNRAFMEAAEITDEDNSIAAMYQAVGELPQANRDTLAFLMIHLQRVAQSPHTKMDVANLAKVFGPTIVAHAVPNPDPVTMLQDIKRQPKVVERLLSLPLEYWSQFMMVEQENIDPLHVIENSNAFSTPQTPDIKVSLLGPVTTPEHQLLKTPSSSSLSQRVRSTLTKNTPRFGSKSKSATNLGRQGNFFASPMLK
In words: blockers of MgcRacGAP-driven Rac1 GTP hydrolysis – biochemical, ADP Hunter fluorescence, primary and confirmatory, confirmation (AID 624330). The assay is classed as functional.

The subject of a further assay is HEK293. Kind of assay: EBV LMP1 TES2 canonical NF-kB signalling blockers – cell-based, HEK293, luciferase, cherry-pick, dose response (AID 588343). The assay is classed as functional. Conditions: Homo sapiens.

The source made the active and inactive calls. Bounds are passed on as bounds.

The term EC50 denotes the midpoint of the concentration-response curve. Turning to `O=c1c2ccccc2nc(/C=C/c2ccc([N+](=O)[O-])o2)n1CCCO`, the EC50 in [1] is 7.14 µM (inconclusive); in the assay with BJ [2], 6.12 µM (inconclusive); in the assay on BJ [3], 7.21 µM (inconclusive); in [4], 0.503 µM (active); in assay [5], < 0.059 µM (active); in assay [6] it was < 0.059 µM (active). Moreover, the figures for the EC50 (in the assay with BJ [7]; in assay [8]; in the assay on BJ [9]) were 3.96 µM (active), 5.06 µM (inconclusive) and 3.07 µM (active), respectively.
As usually defined, the IC50 is the concentration needed to halve the response being measured. Broadly, the AC50 is the concentration at which the activity in the assay is half-maximal. Regarding `CCN(CC)c1ccc(Nc2nc(-c3cccnc3)cs2)cc1`, the IC50 was 21.5 µM (active) at Caspase-3; 4.32 µM (active) in [10]; 16.9 µM (active) in assay [11]; 26.7 µM (active) in [12]; 185 µM (active) in assay [13]. For the same compound, in the assay on HeLa, the AC50 was 77 µM (active).
Regarding `Cc1nc(-c2noc(-c3ccccc3Cl)n2)c(C(F)(F)F)o1`, the AC50 in the assay with HeLa was 291 µM (active).
As to `COc1ccc(C=NNc2nc3ccccc3s2)cc1`, in the assay on HEK293, the half-maximal activity concentration (AC50) was 2.96 µM (active).
